25 compounds from US20250221979A1, “NOVEL HETEROCYCLIC COMPOUND” (SHOUYAO HOLDINGS (BEIJING) CO., LTD., priority 2022, published 2025) can be followed below.

By IC50 is commonly meant the concentration at which inhibition is half-maximal.

Structures can show the parent of a compound that is named as a salt.

The target in the experiment is human MAT2A enzyme (Homo sapiens (Human), UniProt P31153). Kind of experiment: In vitro enzymatic inhibition activity assay on MAT2A (PiColorLock phosphate detection). It is filed as biochemical. The following applies: purified human MAT2A 10 nM, ATP 50 μM, L-methionine 100 μM, 6 h at 23° C.; read-out: MAT2A inhibitory activity IC50. Here is the method: Enzymatic activity assays of compounds of this patent against MAT2A (to detect half inhibitory concentration IC50 values of the compounds) were performed using the phosphate detection kit PiColorLockTM (ab270004, purchased from Abcam). This method utilized the principle that purified human MAT2A enzyme catalyzes the formation of S-adenosylmethionine (SAM) from L-methionine and ATP to release free phosphate, and used the spectrophotometric method to quantify phosphate, so as to determine the enzymatic activity of MAT2A. Compounds were diluted in a 10-fold gradient starting at 1 mM with 100% DMSO (for a total of 8 concentrations) and 2 μL of each concentration was added to 48 μL of reaction buffer (50 mM Tris-HCl PH 7.5, 50 mM KCl, 10 mM MgCl2, 0.01% Brij-35, 0.01% BSA, 1 mM DTT) and mixed well. The final diluted compound was prepared, and 5 μL of MAT2A enzyme (final concentration of 10 nM), 5 μL of ATP (final concentration of 50 μM), and 5 μL of L-methionine (final concentration of 100 μM) were added to each well of a 384-well plate (#3701, purchased from CORNING). After the 384-well plate was placed in the incubator at 23° C. for 6 h, 5 μL of PiColorLock reagent diluted Accelerator (dilution ratio 1:100) was added to each well, and the reaction was stopped by incubating in the incubator at 23° C. for 5 min. 2 μL of Stabiliser was added, the absorbance was read at 630 nm on BMG CLARIOstar, and the IC50 value of the compound was calculated by using GraphPad Prism software.
human MAT2A enzyme, sequence (P31153 whole entry): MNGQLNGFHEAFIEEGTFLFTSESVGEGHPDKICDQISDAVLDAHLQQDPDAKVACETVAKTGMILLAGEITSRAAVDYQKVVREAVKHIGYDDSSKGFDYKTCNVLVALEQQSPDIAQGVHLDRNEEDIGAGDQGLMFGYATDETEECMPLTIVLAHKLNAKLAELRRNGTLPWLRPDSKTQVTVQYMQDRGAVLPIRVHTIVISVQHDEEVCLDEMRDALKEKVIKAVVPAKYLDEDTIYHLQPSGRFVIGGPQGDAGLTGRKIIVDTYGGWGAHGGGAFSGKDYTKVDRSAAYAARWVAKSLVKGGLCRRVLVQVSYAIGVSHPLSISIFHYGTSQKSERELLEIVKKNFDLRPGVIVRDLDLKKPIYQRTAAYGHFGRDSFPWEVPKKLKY
Under the conditions of this experiment, the inhibition of MAT2A by test compounds can be expressed as an IC50 value for the inhibition of the level of phosphate production during the enzymatic reaction.
As for `COC(=O)c1c(N)c2ccc(C)cc2n(-c2ccc(C(C)O)cc2)c1=O` (stereo not shown) [Example 329, methyl 4-amino-1-(4-(1-hydroxyethyl)phenyl)-2-oxo-7-methyl-1,2-dihydroquinoline-3-carboxylate], the IC50 was found to be 2.65 nM. Under `COC(=O)c1c(N)c2ccc(C(F)(F)F)nc2n(-c2cccc3c(Cl)nccc23)c1=O` [Example 318, methyl 4-amino-1-(1-chloroisoquinolin-5-yl)-2-oxo-7-(trifluoromethyl)-1,2-dihydro-1,8-naphthyridine-3-carboxylate] stands 2.34 nM; under `COC(=O)c1c(N)c2ccc(C(F)(F)F)cc2n(-c2ccc(C)c(N)c2)c1=O` [Example 253, methyl 4-amino-1-(3-amino-4-methylphenyl)-2-oxo-7-(trifluoromethyl)-1,2-dihydroquinoline-3-carboxylate], 1.76 nM; under `COC(=O)c1c(N)c2ccc(Br)cc2n(-c2cccc3nccn23)c1=O` [Example 195, methyl 4-amino-7-bromo-1-(imidazo(3,2-a)pyridin-5-yl)-2-oxo-1,2-dihydro quinoline-3-carboxylate], 4.91 nM. `COC(=O)c1c(N)c2ccc(Br)nc2n(-c2ccc(Cl)nc2)c1=O` [Example 297, methyl 4-amino-7-bromo-1-(6-chloropyridin-3-yl)-2-oxo-1,2-dihydro-1,8-naphthyridine-3-carboxylate]: the IC50 stood at 2.04 nM. `CNc1ccc(-n2c(=O)c(C(=O)OC)c(N)c3ccc(C(F)(F)F)cc32)cc1` [Example 115, methyl 4-amino-1-(4-(methylamino)phenyl)-2-oxo-7-(trifluoromethyl)-1,2-dihydroquinoline-3-carboxylate hydrochloride]: the IC50 came to 2.89 nM. Next, `COC(=O)c1c(N)c2ccc(C(F)(F)F)cc2n(-c2ccc(I)cc2)c1=O` [Example 125, methyl 4-amino-1-(4-iodophenyl)-2-oxo-7-(trifluoromethyl)-1,2-dihydroquinoline-3-carboxylate]: 2.67 nM.

Turning to `[2H]C([2H])([2H])OC(=O)c1c(N)c2ccc(Br)cc2n(-c2ccc(C(C)O)cc2)c1=O` (stereo not shown) [Example 311, methyl-d3 4-amino-7-bromo-1-(4-(1-hydroxyethyl)phenyl)-2-oxo-1,2-dihydroquinoline-3-carboxylate], the half-maximal inhibitory concentration (IC50) is 0.6 nM. Under `COC(=O)c1c(N)c2ccc(C(F)F)cc2n(-c2ccc(C(C)O)cc2)c1=O` (stereo not shown) [Example 336, methyl 4-amino-7-(difluoromethyl)-1-(4-(1-hydroxyethyl)phenyl)-2-oxo-1,2-dihydroquinoline-3-carboxylate] stands 1.94 nM; under `COC(=O)c1c(N)c2ccc(C(F)(F)F)cc2n(-c2cn[nH]c2)c1=O` [Example 159, methyl 4-amino-2-oxo-1-(1H-pyrazol-4-yl)-7-(trifluoromethyl)-1,2-dihydroquinoline-3-carboxylate], 2.87 nM; under `COC(=O)c1c(N)c2ccc(C(F)(F)F)cc2n(-c2ccc3c(c2)CCC3O)c1=O` (stereo not shown) [Example 135, methyl 4-amino-1-(1-hydroxy-2,3-dihydro-1H-inden-5-yl)-2-oxo-7-(trifluoromethyl)-1,2-dihydroquinoline-3-carboxylate], 8.85 nM.

In the case of `[2H]C([2H])([2H])OC(=O)c1c(N)c2ccc(C(F)(F)F)cc2n(-c2ccc(N)cc2)c1=O` [Example 412, methyl-d3 4-amino-1-(4-aminophenyl)-7-(trifluoromethyl)-2-oxo-1,2-dihydroquinoline-3-carboxylate], the 50% inhibitory concentration (IC50) was determined as 0.97 nM. As for `COC(=O)c1c(N)c2ccc(Br)cc2n(-c2ccc([N+](=O)[O-])cc2)c1=O` [Example 130, methyl 4-amino-2-oxo-7-bromo-1-(4-nitrophenyl)-1,2-dihydroquinoline-3-carboxylate], the IC50 amounted to 5.99 nM. Next, `COC(=O)c1c(N)c2ccc(Br)cc2n(-c2ccc3ncoc3c2)c1=O` [Example 268, methyl 4-amino-1-(benzo[d]oxazol-6-yl)-7-bromo-2-oxo-1,2-dihydroquinoline-3-carboxylate]: 3.39 nM. Take `COC(=O)c1c(N)c2ccc(C(F)(F)F)nc2n(-c2ccc3nccn3c2)c1=O` [Example 309, methyl 4-amino-1-(imidazo[3,2-a]pyridin-6-yl)-2-oxo-7-(trifluoromethyl)-1,2-dihydro-1,8-naphthyridine-3-carboxylate]: the IC50 was found to be 2.02 nM.

Take `COC(=O)c1c(N)c2ccc(C)nc2n(-c2ccc([C@@H](C)O)cc2)c1=O` [Example 343, methyl 4-amino-(1-(4-(1R)-1-hydroxyethyl)phenyl)-7-methyl-2-oxo-pyrido[2,3-b]pyridin-3-carboxylate]: the IC50 turned out to be 2.39 nM. For `COC(=O)c1c(N)c2ccc(C(F)(F)F)cc2n(-c2ccc3ccoc3c2)c1=O` [Example 187, methyl 4-amino-1-(1-benzofuran-6-yl)-2-oxo-7-(trifluoromethyl)-1,2-dihydroquinoline-3-carboxylate], the concentration for half-maximal inhibition (IC50) was 0.76 nM. For the compound `COC(=O)c1c(N)c2ccc(C(F)(F)F)cc2n(-c2ccc3c(c2)CCC3(C)O)c1=O` (stereo not shown) [Example 148, methyl 4-amino-1-(1-hydroxy-1-methyl-2,3-dihydro-1H-inden-5-yl)-2-oxo-7-(trifluoromethyl)-1,2-dihydroquinoline-3-carboxylate], the IC50 was 2.83 nM. Take `COC(=O)c1c(N)c2ccc(Br)nc2n(-c2ccc(N)cc2)c1=O` [Example 263, methyl 4-amino-1-(4-aminophenyl)-7-bromo-2-oxo-1,2-dihydro-1,8-naphthyridine-3-carboxylate]: the IC50 was 1.41 nM. `COC(=O)c1c(N)c2ccc(C(F)F)cc2n(-c2ccc([C@@H](C)O)cc2)c1=O` [Example 357, methyl (R)-4-amino-7-(difluoromethyl)-1-(4-(1-hydroxyethyl)phenyl)-2-oxo-1,2-dihydroquinoline-3-carboxylate]: the IC50 came out at 0.54 nM.

For the compound `COC(=O)c1c(N)c2ccc(Br)cc2n(-c2ccc(C)cc2)c1=O` [Example 101, methyl 4-amino-7-bromo-1-(4-methylphenyl)-2-oxo-1,2-dihydroquinoline-3-carboxylate], the IC50 worked out at 0.59 nM.

`COC(=O)c1c(N)c2ccc(Br)nc2n(-c2cnc(Cl)cc2C)c1=O` [Example 249, methyl 4-amino-7-bromo-1-(6-chloro-4-methylpyridin-3-yl)-2-oxo-1,2-dihydro-1,8-naphthyridine-3-carboxylate]: the half-inhibitory concentration (IC50) is 2.99 nM. On to `COC(=O)c1c(N)c2ccc(Br)cc2n(-c2ccc(OC)nc2)c1=O` [Example 211, methyl 4-amino-7-bromo-1-(6-methoxypyridin-3-yl)-2-oxo-1,2-dihydroquinoline-3-carboxylate], for which the IC50 came out at 1.84 nM. On to `[2H]C([2H])([2H])OC(=O)c1c(N)c2ccc(C(F)(F)F)cc2n(-c2ccc(C(C)O)cc2)c1=O` (stereo not shown) [Example 331, methyl-d3 4-amino-1-(4-(1-hydroxyethyl)phenyl)-2-oxo-7-(trifluoromethyl)-1,2-dihydroquinolin-3-carboxylate], for which the IC50 amounted to 2.49 nM. Next, `COC(=O)c1c(N)c2ccc(C(F)(F)F)cc2n(-c2cccc3c[nH]nc23)c1=O` [Example 267, methyl 4-amino-1-(2H-indazol-7-yl)-2-oxo-7-(trifluoromethyl)-1,2-dihydroquinoline-3-carboxylate]: 7.38 nM.
